We go through 27 compounds from patent US9540343B2 (Gilead Sciences, Inc., priority 2011, dated 2017).

The first assay has as its system HIV-IIIb. The assay can be described thus: Test A: Antiviral assay in MT4 cells. In kind it is cell-based, HIV-1. Conditions: Human immunodeficiency virus 1, IIIB, MT4, 120 h, read-out: % inhibition at 2 μM, percent inhibition of virus-induced cell killing, from dose response curve at 2 uM drug; MT-4 cells infected with HIV-IIIb, 5 days, CellTiter-Glo. (In general: In ATP-based viability assays light output follows the ATP content of the culture.)
Usually inhibition stands for the drop in the measured response relative to a control, in per cent. For the compound `NC(=O)c1cc(-c2cccnc2[C@H](Cc2cc(F)cc(F)c2)NC(=O)Cn2nc(C(F)(F)F)c3c2C[C@H]2C[C@@H]32)ccc1F` (single isomer, unassigned) [Example 173], the inhibition at 2 µM turned out to be 94%.

Consider `NC(=O)c1cc(-c2cccnc2[C@H](Cc2cc(F)cc(F)c2)NC(=O)Cn2nc(C(F)(F)F)c3c2C[C@@H]2C[C@H]32)ccc1F` (single isomer, unassigned) [Example 174], for which the inhibition at 2 µM turned out to be 71%. Same read-out and setting: the same measure for `NC(=O)c1cc(-c2cccnc2[C@H](Cc2cc(F)cc(F)c2)NC(=O)Cn2nc(C(F)F)c3c2C(F)(F)C2CC32)ccc1F` (single isomer, unassigned) [Example 215]: 80%; for `NC(=O)c1cccc(-c2cccnc2[C@H](Cc2cc(F)cc(F)c2)NC(=O)Cc2c[nH]c3ccc(O)cc23)c1` [Example 39, (S)-3-(2-(2-(3,5-difluorophenyl)-1-(2-(5-hydroxy-1H-indol-3-yl)acetamido)ethyl)pyridin-3-yl)benzamide]: 99%. Take `NC(=O)c1cccc(-c2cccnc2[C@H](Cc2cc(F)cc(F)c2)NC(=O)Cc2c[nH]c3ccc(F)cc23)c1` [Example 50D, (S)-3-(2-(2-(3,5-difluorophenyl)-1-(2-(5-fluoro-1H-indol-3-yl)acetamido)ethyl)pyridin-3-yl)benzamide]: the inhibition at 2 µM was found to be 106%.

For `NC(=O)c1cc(-c2cccnc2[C@H](Cc2cc(F)cc(F)c2)NC(=O)Cn2nc(C(F)F)c3c2C(F)(F)C2CC32)ccc1F` (stereo partly drawn) [Example 60H, 5-(2-((1S)-1-(2-(3-(difluoromethyl)-5,5-difluoro-3b,4,4a,5-tetrahydro-1H-cyclopropa[3,4]cyclopenta[1,2-c]pyrazol-1-yl)acetamido)-2-(3,5-difluorophenyl)ethyl)pyridin-3-yl)-2-fluorobenzamide], the inhibition at 2 µM stood at 97%. For the compound `NC(=O)c1cc(-c2cccnc2[C@H](Cc2cc(F)cc(F)c2)NC(=O)Cn2nc(C(F)F)c3c2C2CCC3C2)ccc1F` (stereo partly drawn) [Example 83, (S)-5-(2-(2-(3,5-difluorophenyl)-1-(2-(4,5,6,7-tetrahydro-3-difluoromethyl-4,7-(methano)indazol-1-yl)acetamido)ethyl)pyridin-3-yl)-2-fluorobenzamide], the inhibition at 2 µM was 92%. `NC(=O)c1cc(-c2cccnc2[C@H](Cc2cc(F)cc(F)c2)NC(=O)Cn2nc(C(F)(F)F)c3c2CCCC3(F)F)ccc1F` [Example 102D, (S)-5-(2-(1-(2-(4,4-difluoro-3-(trifluoromethyl)-4,5,6,7-tetrahydro-1H-indazol-1-yl)acetamido)-2-(3,5-difluorophenyl)ethyl)pyridin-3-yl)-2-fluorobenzamide]: the inhibition at 2 µM is 50%. Still for that read-out and setting: the same measure for `NC(=O)c1cc(-c2cccnc2[C@H](Cc2cc(F)cc(F)c2)NC(=O)Cn2nc(C(F)(F)F)c3c2CCOC3)ccc1F` [Example 112B, (S)-5-(2-(2-(3,5-difluorophenyl)-1-(2-(3-(trifluoromethyl)-6,7-dihydropyrano[4,3-c]pyrazol-1(4H)-yl)acetamido)ethyl)pyridin-3-yl)-2-fluorobenzamide]: 28%; for `NC(=O)c1cc(-c2cccnc2[C@H](Cc2cc(F)cc(F)c2)NC(=O)Cn2nc(C(F)(F)F)c3c2CC2CC32)ccc1F` (stereo partly drawn) [Example 122G, 5-(2-((1S)-2-(3,5-difluorophenyl)-1-(2-(3-(trifluoromethyl)-3b,4,4a,5-tetrahydro-1H-cyclopropa[3,4]cyclopenta[1,2-c]pyrazol-1-yl)acetamido)ethyl)pyridin-3-yl)-2-fluorobenzamide]: 101%. Still for that read-out and setting: the value for `NC(=O)c1cc(-c2cccnc2[C@H](Cc2cc(F)cc(F)c2)NC(=O)Cn2nc(C(F)(F)F)c3c2CCC3)ccc1F` [Example 134, (S)-5-(2-(2-(3,5-difluorophenyl)-1-(2-(3-(trifluoromethyl)-5,6-dihydrocyclopenta[c]pyrazol-1(4H)-yl)acetamido)ethyl)pyridin-3-yl)-2-fluorobenzamide] was 98%; that for `NC(=O)c1cc(-c2cccnc2[C@H](Cc2cc(F)cc(F)c2)NC(=O)Cn2nc(C(F)(F)F)c3c2C2CC2C3)ccc1F` (stereo partly drawn) [Example 169E, 5-(2-((1S)-2-(3,5-difluorophenyl)-1-(2-(3-(trifluoromethyl)-4,4-a,5,5a-tetrahydro-1H-cyclopropa[4,5]cyclopenta[1,2-c]pyrazol-1-yl)acetamido)ethyl)pyridin-3-yl)-2-fluorobenzamide] was 94%; that for `NC(=O)c1cc(-c2cccnc2[C@H](Cc2cc(F)cc(F)c2)NC(=O)Cn2nc(C(F)(F)F)c3c2C(F)(F)C2CC32)ccc1F` (stereo partly drawn) [Example 181E, 5-(2-((1S)-1-(2-(5,5-difluoro-3-(trifluoromethyl)-3b,4,4a,5-tetrahydro-1H-cyclopropa[3,4]cyclopenta[1,2-c]pyrazol-1-yl)acetamido)-2-(3,5-difluorophenyl)ethyl)pyridin-3-yl)-2-fluorobenzamide] was 99%. On the same count and under the same terms, the same measure for `NC(=O)c1cc(-c2cccnc2[C@H](Cc2cc(F)cc(F)c2)NC(=O)Cn2nc(C(F)(F)F)c3ccccc32)ccc1F` [Example 250, (S)-5-(2-(2-(3,5-difluorophenyl)-1-(2-(3-(trifluoromethyl)-1H-indazol-1-yl)acetamido)ethyl)pyridin-3-yl)-2-fluorobenzamide]: 19%; for `O=C(Cc1c[nH]c2ccc(O)cc12)N[C@H](Cc1cc(F)cc(F)c1)c1ncncc1-c1ccc(Cl)cc1` [Example 284, (R)—N-(1-(5-(4-chlorophenyl)pyrimidin-4-yl)-2-(3,5-difluorophenyl)ethyl)-2-(5-hydroxy-1H-indol-3-yl)acetamide]: 50%; for `NC(=O)c1cc(-c2cccnc2[C@H](Cc2cc(F)cc(F)c2)NC(=O)Cn2nc(C(F)(F)F)c3c2C(F)(F)CCC3)ccc1F` [Example 311B, (S)-5-(2-(1-(2-(7,7-difluoro-3-(trifluoromethyl)-4,5,6,7-tetrahydro-1H-indazol-1-yl)acetamido)-2-(3,5-difluorophenyl)ethyl)pyridin-3-yl)-2-fluorobenzamide]: 97%. Take `O=C(Cc1c[nH]c2ccc(O)cc12)N[C@@H](Cc1cc(F)cc(F)c1)c1ncncc1-c1ccc(Cl)cc1` [Example 316, (S)—N-(1-(5-(4-chlorophenyl)pyrimidin-4-yl)-2-(3,5-difluorophenyl)ethyl)-2-(5-hydroxy-1H-indol-3-yl)acetamide]: the inhibition at 2 µM is 100%. Same read-out and setting: the same measure for `NC(=O)c1cc(-c2cccnc2[C@H](Cc2cc(F)cc(F)c2)NC(=O)Cn2nc(C(F)F)c3c2C(F)(F)CCC3(F)F)ccc1F` [Example 344, (S)-5-(2-(1-(2-(3-(difluoromethyl)-4,4,7,7-tetrafluoro-4,5,6,7-tetrahydro-1H-indazol-1-yl)acetamido)-2-(3,5-difluorophenyl)ethyl)pyridin-3-yl)-2-fluorobenzamide]: 93%. With `NC(=O)c1cc(-c2cccnc2[C@H](Cc2cc(F)cc(F)c2)NC(=O)Cn2nc(C(F)(F)F)c3c2CNCC3)ccc1F` [Example 352, (S)-5-(2-(2-(3,5-difluorophenyl)-1-(2-(3-(trifluoromethyl)-4,5,6,7-tetrahydro-1H-pyrazolo[3,4-c]pyridin-1-yl)acetamido)ethyl)pyridin-3-yl)-2-fluorobenzamide], the inhibition at 2 µM came out at 16%. The same measure, in the same setting: the value for `NC(=O)c1cccc(-c2cccnc2[C@H](Cc2cc(F)cc(F)c2)NC(=O)Cn2ccc3ccccc32)c1` [Example 426, (S)-3-(2-(1-(2-(1H-indol-1-yl)acetamido)-2-(3,5-difluorophenyl)ethyl)pyridin-3-yl)benzamide] was 19%. For `O=C(Cc1c[nH]c2ccc(O)cc12)NC(Cc1cc(F)cc(F)c1)c1nccnc1-c1ccc(Cl)cc1` (stereo not drawn) [Example 443I, N-(1-(3-(4-chlorophenyl)pyrazin-2-yl)-2-(3,5-difluorophenyl)ethyl)-2-(5-hydroxy-1H-indol-3-yl)acetamide], the inhibition at 2 µM was 82%.

For `NC(=O)c1cc(-c2cccnc2[C@H](Cc2cc(F)cc(F)c2)NC(=O)Cn2ccc(C(F)(F)F)n2)ccc1F` [Example 455, (S)-5-(2-(2-(3,5-difluorophenyl)-1-(2-(3-(trifluoromethyl)-1H-pyrazol-1-yl)acetamido)ethyl)pyridin-3-yl)-2-fluorobenzamide], the inhibition at 2 µM came to 4%. With `NC(=O)c1cc(-c2cccnc2[C@H](Cc2cc(F)cc(F)c2)NC(=O)Cn2nc(C(F)(F)F)c3c2C2CC2C3(F)F)ccc1F` (stereo partly drawn) [Example 462J, 5-(2-((1S)-1-(2-(4,4-difluoro-3-(trifluoromethyl)-4,4-a,5,5a-tetrahydro-1H-cyclopropa[4,5]cyclopenta[1,2-c]pyrazol-1-yl)acetamido)-2-(3,5-difluorophenyl)ethyl)pyridin-3-yl)-2-fluorobenzamide], the inhibition at 2 µM was determined as 2%.

Still in this assay, the particulars now being: percent inhibition of virus-induced cell killing, from dose response curve at 2 uM drug; MT-4 cells infected with HIV-IIIb, 5 days, CellTiter-Glo.
As a reminder, the % inhibition is the drop in the measured response relative to a control, in per cent. A higher % inhibition goes with a response far below the control. On to `NC(=O)c1cc(-c2cccnc2[C@H](Cc2cc(F)cc(F)c2)NC(=O)Cn2nc(C(F)F)c3c2C(F)(F)C2CC32)ccc1F` (single isomer, unassigned) [Example 216], for which the “% inhibition at 2 μM” value came out at 86%. Same read-out and setting: the value for `NC(=O)c1cc(-c2cccnc2[C@H](Cc2cc(F)cc(F)c2)NC(=O)Cn2nc(C(F)(F)F)c3c2C(F)(F)C2CC32)ccc1F` (single isomer, unassigned) [Example 449] was 94%; that for `NC(=O)c1cc(-c2cccnc2[C@H](Cc2cc(F)cc(F)c2)NC(=O)Cn2nc(C(F)(F)F)c3c2C(F)(F)C2CC32)ccc1F` (single isomer, unassigned) [Example 450] was 33%; that for `NC(=O)c1cc(-c2cccnc2[C@H](Cc2cc(F)cc(F)c2)NC(=O)Cn2nc(C(F)(F)F)c3c2[C@@H]2C[C@@H]2C3)ccc1F` [Example 187, 5-(2-((S)-2-(3,5-difluorophenyl)-1-(2-((4aR,5aR)-3-(trifluoromethyl)-4,4-a,5,5a-tetrahydro-1H-cyclopropa[4,5]cyclopenta[1,2-c]pyrazol-1-yl)acetamido)ethyl)pyridin-3-yl)-2-fluorobenzamide] was 31%.
